The test system of one assay is Gαi3. The assay is described as follows: Gαi3 BRET sensor, AT1R-mediated. Format: cell-based, human. The method, then:
HEK293SL cells were seeded at a density of 7.5 × 10^5 cells per 100-mm dish and 24 h later, transiently transfected as such. For receptor internalization experiments, cells were transfected with 0.12 μg AT1R-RlucII, B2R-RlucII, or β2AR-RlucII and 0.48 μg of either rGFP-CAAX (to assess removal from the PM) or rGFP-FYVE (to assess accumulation in the endosomes). For β-arrestin recruitment assays, cells were transfected with 0.48 μg of receptor-YFP along with 0.12 μg of β-arrestin-RlucII. For β-arrestin/AP-2 binding experiments, cells were transfected with 1 μg Flag-AT1R, 1 μg β2-Adaptin-YFP, and 0.12 μg β-arrestin2-RlucII. […] For kinetics of β-arrestin recruitment or β-arrestin binding to receptor and AP-2 experiments, cells were serum starved for 30 min, pretreated with 21 (50 µM) or Barbadin (100 µM) for 30 min, stimulated with 100 nM AngII or 1 µM BK and BRET signals were monitored at indicated times using a Victor X Light plate reader (PerkinElmer). […] The BRET ratio was determined by calculating the ratio of the light emitted by YFP over the light emitted by the RlucII. […] For the kinetics of GTPase and PI3K/Akt activation, cells were serum starved, pretreated with 21 (50 µM) or Wortmannin (200 nM) for 30 min, stimulated with ligand (100 nM AngII or 100 ng/ml EGF) and BRET signals were monitored at indicated times. […]
In general terms: Bioluminescence resonance energy transfer reports proximity on the nanometre scale.

Another assay concerns the target H-Ras (Homo sapiens, UniProt P01112). The assay is described as follows: In vitro mant-GTP exchange assay, purified H-Ras with 40 mM EDTA. The format is biochemical. Also noted: the cDNA of H-Ras (full length) was obtained by RT-PCR of HEK293SL; GST (N); made in house; host or cells: E. coli BL21. As for the experimental part:
Ras activity was assessed in a 384-well black bottom plate using the mant-GTP exchange factor assay that measures the uptake of the fluorescent nucleotide analog N-methylanthraniloyl-GTP (mant-GTP) into GTPases. For Ras activation, 2X exchange buffer, 1.66 μg of purified pGEX-6P-1-H-Ras or pGEX-6P-1-K-Ras-WT or pGEX-6P-1-K-Ras-Y32A were added per well in presence of DMSO, different concentrations of Rasarfin (as indicated) or 50 µM of compounds 21.4, 21.7, or 21.8. Using the Infinite 200 Pro plate reader (Tecan) with filters set at 360 nm and 440 nm for detecting the excitation and emissions, respectively, and temperature set at 20 °C, 5 readings were recorded every 5 s before the addition of either H2O, 40 mM EDTA or 0.66 μg purified SOS1. The fluorescence of mant-GTP uptake was measured every 30 sec for 30 min and quantified as the delta relative fluorescence units (RFU), which was calculated as the RFU post-addition minus the 5 averaged RFU pre-addition, per condition.

SMILES strings stand for the structures. “And” between values parts separate entries of the source, which are not always exact repeats. Equal entries are not always repeated.

H-Ras, sequence (P01112 whole entry): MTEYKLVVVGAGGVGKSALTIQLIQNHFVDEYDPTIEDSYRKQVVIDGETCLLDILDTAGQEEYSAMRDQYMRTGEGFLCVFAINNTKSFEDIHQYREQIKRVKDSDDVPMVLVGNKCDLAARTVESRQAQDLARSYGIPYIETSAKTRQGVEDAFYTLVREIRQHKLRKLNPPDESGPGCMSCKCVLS

Turning to `CC(C)C(=O)N1CCN(c2ccc(NC(=O)c3cc4ccccc4o3)cc2Cl)CC1` [Compound 21], the “Gαi3 engagement by AT1R (BRET sensor)” value in the assay with Gαi3 (50 μM) was “lack of inhibitory effects”. In the assay on Gαi3 (listed as Comp 21), the “Gi3 BRET sensor signal (S_Fig.4b), single experiments” value is 0.11 and 0.122. The “mant-GTP binding to purified H-Ras promoted by EDTA” value on H-Ras is recorded as “also inhibited mant-GTP binding promoted by EDTA”.
